Measured values published in patent US9708500B2, “Liquid composition, pigment dispersion liquid, and aqueous ink composition for ink jet recording” (Seiko Epson Corporation, priority 2015, dated 2017).

Assay: distribution coefficient of water-octanol (log P), OECD Test Guideline 107
Settings: for log P (distribution coefficient of water-octanol): OECD Test Guideline 107
Description: Here, the distribution coefficient of water-octanol, that is, a log P value represents a value which is defined by OECD Test Guideline 107. As the log P value is high, hydrophobicity is high, and as the log P value is low, hydrophilicity is high.

SMILES	log P (distribution coefficient of water-octanol)	logP (octanol/water)
CCCC(=O)OCC(O)CO (stereo not drawn) [butyric acid 2,3-dihydroxypropyl]	−0.21	
CCCC(=O)OCC(COC(=O)CCC)OC(=O)CCC [glycerin tributyrate]		2.95
CCCCCC(=O)OCC(O)CO (stereo not drawn) [hexanoic acid 2,3-dihydroxypropyl]	0.85	
